Measurements taken from ChEMBL document CHEMBL1153491, “Discovery of CYT997: a structurally novel orally active microtubule targeting agent” (Bioorg Med Chem Lett, 2009).
Activity calls are given as the source filed them. No cut-off for these calls is given here.

How the values were obtained:
PC-3 [1] = test: Cytotoxicity against human PC3 cells after 72 hrs by MTT assay; assay type: functional, cell-based; details: PC-3, 72 h
DU-145 = test: Cytotoxicity against human DU145 cells after 72 hrs by MTT assay; assay type: functional, cell-based; details: DU-145, 72 h
[2] = Clearance in rat at 5 mg/kg, iv; assay type: ADME, organism-based; design: dose 5 mg/kg, route intravenous; details: in vivo
[3] = Half life in rat at 5 mg/kg, iv; assay type: ADME, organism-based; design: dose 5 mg/kg, route intravenous; details: in vivo
[4] = Oral bioavailability in rat at 25 mg/kg, po; assay type: ADME, organism-based; details: in vivo
[5] = Apparent volume of distribution in rat at 5 mg/kg, iv; assay type: ADME, organism-based; design: dose 5 mg/kg, route intravenous; details: in vivo, read-out: Vz
[6] = Cmax in rat at 25 mg/kg, po; assay type: ADME, organism-based; design: dose 25 mg/kg, route oral; details: in vivo
PC-3 [7] = test: Cell cycle arrest in human PC3 cells assessed as accumulation in G2/M phase after 1 hr; assay type: functional, cell-based
[8] = Half life in rat at 5 mg/kg, iv in presence of captisol; assay type: ADME, organism-based; design: dose 5 mg/kg, route intravenous; details: in vivo
[9] = Apparent volume of distribution in rat at 5 mg/kg, iv in presence of captisol; assay type: ADME, organism-based; design: dose 5 mg/kg, route intravenous; details: in vivo, read-out: Vz
Bos taurus = species: Bos taurus; test: Inhibition of bovine tubulin polymerization at 3 uM
PC-3 [10] = test: Disruption of microtubule network in human PC3 cells after 1 hr; assay type: functional, cell-based
[11] = Clearance in rat at 5 mg/kg, iv in presence of captisol; assay type: ADME, organism-based; design: dose 5 mg/kg, route intravenous; details: in vivo

In the case of `CCCC(Nc1cncc(-c2ccc(O)c(OC)c2)n1)c1ccc(Cl)cc1` (stereo not drawn), the IC50 (PC-3 [1]) is reported as 20000 nM and the IC50 (DU-145) is reported as 10000 nM.

For `CCC[C@H](Nc1nc(-c2ccc(NC(=O)NCC)c(OC)c2)ncc1C)c1cccnc1` [LEXIBULIN], the clearance [2] was 36.8 mL/min/kg, the half-life [3] was 1.6 h and the IC50 (PC-3 [1]) was 60 nM. For the same compound, the bioavailability [4] was 78%, the Vd [5] was 5.2 L/kg and the Cmax [6] was 9.4 µM. For the same compound, the IC50 (DU-145) was 60 nM.

For `CCCC(Nc1cncc(-c2ccc(O)c(OC)c2)n1)c1ccc(OC)cc1` (stereo not drawn), the IC50 (PC-3 [1]) was 3000 nM and the IC50 (DU-145) was 3000 nM.

Compound `CCCC(Nc1cncc(-c2ccc(O)c(OC)c2)n1)c1cccc(OC)c1` (stereo not drawn) has an IC50 (PC-3 [1]) of 10000 nM and an IC50 (DU-145) of 1000 nM.

`CCC[C@H](Nc1ccnc(-c2ccc(NC(=O)NCC)c(OC)c2)n1)c1cccnc1` showed an IC50 (PC-3 [1]) of 150 nM and an IC50 (DU-145) of 200 nM.

For `COc1cc(-c2cncc(N[C@@H](C)c3ccccc3)n2)ccc1O`, the IC50 (PC-3 [1]) was 10000 nM and the IC50 (DU-145) was 3000 nM.

`CCC[C@H](Nc1cc(-c2ccc(NC(=O)NCC)c(OC)c2)ncn1)c1cccnc1` showed an IC50 (PC-3 [1]) of 100 nM and an IC50 (DU-145) of 100 nM.

`CCCC(Nc1cncc(-c2ccc(NC(C)=O)c(OC)c2)n1)c1cccnc1` (stereo not drawn) showed an IC50 (PC-3 [1]) of 5000 nM.

`CC[C@H](Nc1cncc(-c2ccc(O)c(OC)c2)n1)c1ccccc1` gave an IC50 (PC-3 [1]) of 10000 nM and an IC50 (DU-145) of 10000 nM.

`CCCC(Nc1cncc(-c2ccc(O)c(OC)c2)n1)c1ccccc1` (stereo not drawn) gave an IC50 (PC-3 [1]) of 160 nM and an IC50 (DU-145) of 500 nM.

For `CCCC(Nc1cncc(-c2ccc(NC(=O)NCC)c(CC)c2)n1)c1cccnc1` (stereo not drawn), the IC50 (PC-3 [1]) was 160 nM and the IC50 (DU-145) was 100 nM.

For `CCCC(Nc1cncc(-c2ccc(O)c(OC)c2)n1)c1cccc(Cl)c1` (stereo not drawn), the IC50 (PC-3 [1]) was 1000 nM and the IC50 (DU-145) was 600 nM.

With `CCCC(Nc1cncc(-c2ccc(O)c(OC)c2)n1)c1cccnc1` (stereo not drawn) the IC50 (PC-3 [1]) was 300 nM and the IC50 (DU-145) was 600 nM.

In the case of `CCCC(Nc1cncc(-c2ccc(NC(=O)NCCN(C)C)c(OC)c2)n1)c1cccnc1` (stereo not drawn), the IC50 (PC-3 [1]) is reported as 1000 nM and the IC50 (DU-145) is reported as 1000 nM.

In the case of `CCCC(Nc1cncc(-c2ccc(NC(=O)NCC)c(OC)c2)n1)c1cccnc1` (stereo not drawn), the IC50 (PC-3 [1]) is reported as 40 nM and the IC50 (DU-145) is reported as 60 nM.

`CCCC(Nc1cncc(-c2ccc(O)c(OC)c2)n1)c1ccc(F)cc1` (stereo not drawn) showed an IC50 (DU-145) of 4000 nM.

Work on `CCC[C@H](Nc1cc(-c2ccc(NC(=O)NCC)c(OC)c2)nc(C)n1)c1cccnc1` yielded an IC50 (PC-3 [1]) of 80 nM and an IC50 (DU-145) of 100 nM.

With `CCC[C@H](Nc1cc(C)nc(-c2ccc(NC(=O)NCC)c(OC)c2)n1)c1cccnc1` the IC50 (PC-3 [1]) was 200 nM and the IC50 (DU-145) was 200 nM.

In the case of `CCCC(Nc1cncc(-c2ccc(O)c(OC(C)C)c2)n1)c1cccnc1` (stereo not drawn), the IC50 (PC-3 [1]) is reported as 10000 nM and the IC50 (DU-145) is reported as 10000 nM.

Compound `CCCC(Nc1cncc(-c2ccc(O)c(OC)c2)n1)c1cccc(F)c1` (stereo not drawn) has an IC50 (PC-3 [1]) of 600 nM and an IC50 (DU-145) of 300 nM.

Work on `CCCC(Nc1cncc(-c2ccc(O)c(OCC)c2)n1)c1cccnc1` (stereo not drawn) yielded an IC50 (PC-3 [1]) of 1000 nM.

Work on `CCC[C@H](Nc1cncc(-c2ccc(O)c(OC)c2)n1)c1ccccc1` yielded an IC50 (PC-3 [1]) of 160 nM and an IC50 (DU-145) of 200 nM.

In the case of `CCC[C@H](Nc1cncc(-c2ccc(NC(=O)NCC)c(OC)c2)n1)c1cccnc1`, the Activity (PC-3 [7]) is reported as “Active”, the half-life [8] is reported as 0.6 h and the Vd [9] is reported as 7.1 L/kg. For the same compound, the inhibition (Bos taurus) was “Active”, the Activity (PC-3 [10]) was “Active” and the clearance [11] was 127 mL/min/kg.

With `CCCC(=O)Nc1ccc(-c2cncc(NC(CCC)c3cccnc3)n2)cc1OC` (stereo not drawn) the IC50 (PC-3 [1]) was 600 nM.
